Like-named read-outs stand apart in the source and are kept apart here.
Legend:
Format in all cases: cell-based, Escherichia coli
[1] = tested on: E. coli screening strain DR1234; parameters: unit not given here; conditions: Table 7, MHB medium
Description: (§1) The screening strain, DR1234, was established after all desired drug-resistant genes listed in Table 5 had been delivered into the parent E. coli strain, MG1655, by methods described above. Its level of drug resistance was analyzed by the standard minimum inhibitory concentration (MIC) assay in MHB liquid medium (Chantot, et al., 1986, “Antibacterial activity of roxithromycin: a laboratory evaluation,” J. Antibiot, 39(5):660-8) and the result was summarized in Table 7.

E. coli MG1655 = tested on: E. coli MG1655; parameters: unit not given here
Description: as §1
(§2) The level of drug resistance of CM166 was estimated by MIC assay carried out in MHB liquid medium and the results were summarized in Table 9. CM166 is resistant to antibacterial agents whose resistant genes have been incorporated into the strain, but not to other antibacterial drugs whose resistant genes are not incorporated.
(§3) The level of drug-resistance of screening strain DR1212 was analyzed by standard MIC assay in MHB liquid medium and the result was summarized in Table 11. Similar to screening strains, DR1234 and CM166, DR1212 is also resistant to drugs whose resistant genes have been introduced.
(§4) The level of drug resistance of these screening strains (both intermediates and finals) was evaluated by standard MIC assay in MHB liquid medium and the result of Strain CM242 is summarized in Table 12.
(§5) The level of drug resistance of screening strains CM400 and CM435 was evaluated by standard MIC assay in MHB liquid medium and the results are summarized in Table 13. According to the MIC results, CM435 is hypersensitive to Bleomycin, Daunorucibin, Coumermycin A1 and Erythromycin. Screening strain CM435 and others, which are hypersensitive to certain types of antimicrobial agents, are advantageous in detecting bioactive compounds with low concentration in the screening system.

[2] = tested on: E. coli screening strain CM166; parameters: unit not given here; conditions: Table 9, MHB medium
Source text: as §2

[3] = tested on: E. coli screening strain CM435; parameters: Minimal inhibitory concentrations (MIC90) CM435: unit not given here; conditions: for Minimal inhibitory concentrations (MIC90) CM435: Table 13, MHB medium; for sensitivity of CM435 according to the MIC results: MHB liquid medium
[4] = tested on: E. coli screening strain CM400; parameters: unit not given here; conditions: Table 13, MHB medium
Description: as §5

[5] = tested on: E. coli screening strain CM242; parameters: unit not given here; conditions: second Table 12, MHB medium
Description: as §4

[6] = tested on: E. coli screening strain DR1212; parameters: unit not given here; conditions: Table 11, MHB medium
Description: as §3

Compound	Minimal inhibitory concentrations (MIC90) DR1234 [1]	Minimal inhibitory concentrations (MIC90) MG1655 (E. coli MG1655; Table 7, MHB medium)	Minimal inhibitory concentrations (MIC90) MG1655 (E. coli MG1655; Table 9, MHB medium)	Minimal inhibitory concentrations (MIC90) MG1655 (E. coli MG1655; Table 11, MHB medium)	Minimal inhibitory concentrations (MIC90) MG1655 (E. coli MG1655; Table 13, MHB medium)	Minimal inhibitory concentrations (MIC90) MG1655 (E. coli MG1655; second Table 12, MHB medium)	Minimal inhibitory concentrations (MIC90) CM166 [2]	Minimal inhibitory concentrations (MIC90) CM435 [3]	Minimal inhibitory concentrations (MIC90) CM400 [4]	Minimal inhibitory concentrations (MIC90) CM242 [5]	Minimal inhibitory concentrations (MIC90) DR1212 [6]	sensitivity of CM435 according to the MIC results [3]
CC1(C)S[C@@H]2[C@H](NC(=O)[C@H](N)c3ccccc3)C(=O)N2[C@H]1C(=O)O [Ampicillin]	>400	1.6-3.2	1.6-3.2	1.6-3.2	8	1.6-3.2	>400	>64	>64	>400	>400	–
CN[C@@H]1[C@@H](O[C@H]2O[C@H](CO)[C@@H](N)[C@H](O)[C@H]2O)OC2C[C@@H](N)[C@@H](O[C@H]3[C@H](O)[C@@H](O)[C@H](N)C[C@@H]3N)OC2[C@@H]1O (stereo partly drawn) [Apramycin]	400	3.2-6.3	3.2-6.3	3.2-6.3	4	3.2-6.3	200	>64	64	400	1.6	–
C[C@H]1[C@H](NC(=O)/C(=N\OC(C)(C)C(=O)O)c2csc(N)n2)C(=O)N1S(=O)(=O)O [Aztreonam]	≦0.05	0.1	0.1	0.1	0.06	0.1	≦0.05	–	<0.06	0.3	≦0.05	–
O=C(N[C@H](CO)[C@H](O)c1ccc([N+](=O)[O-])cc1)C(Cl)Cl [Chloramphenicol]	100	3.2	3.2	3.2	8	3.2	100	>64	>64	100	400	–
CO[C@H]1[C@H](OC(=O)c2ccc(C)[nH]2)[C@H](O)[C@@H](Oc2ccc3c(O)c(NC(=O)c4c[nH]c(C(=O)Nc5c(O)c6ccc(O[C@H]7OC(C)(C)[C@@H](OC)[C@H](OC(=O)c8ccc(C)[nH]8)[C@@H]7O)c(C)c6oc5=O)c4C)c(=O)oc3c2C)OC1(C)C [Coumermycin A1]	3.2	12.5	12.5	12.5	>64	12.5	6.3	4	64	6.3	3.2	hypersensitive
NC[C@@H]1CC[C@@H](N)[C@@H](O[C@H]2[C@H](O)[C@@H](O[C@H]3O[C@H](CO)[C@@H](O)[C@H](N)[C@H]3O)[C@H](N)C[C@@H]2N)O1 [Dibekacin]	–	–	–	–	–	3.2	–	–	–	400	–	–
CC[C@H]1OC(=O)[C@H](C)[C@@H](O[C@H]2C[C@@](C)(OC)[C@@H](O)[C@H](C)O2)[C@H](C)[C@@H](O[C@@H]2O[C@H](C)C[C@H](N(C)C)[C@H]2O)[C@](C)(O)C[C@@H](C)C(=O)[C@H](C)[C@@H](O)[C@]1(C)O [Erythromycin]	100	25	25	25	>64	25	100	4	64	25	50	hypersensitive

— patent publication US20100311107A1, “Ultra-High Throughput Screening of Natural Products” (priority 2004, published 2010)
